# Laboratory results published in patent US9145405B2, “Oxadiazole compound and preparation method thereof, pharmaceutical composition and use thereof” (SHANGHAI JIAO TONG UNIVERSITY, priority 2011, dated 2015).
# Like-named read-outs stand apart in the source and are kept apart here.
# Assays:
# [1] = tested on: Cox_B3 virus; test: Anti-Cox_B3 test: inhibition of cytopathic effect (CPE) in infected Vero cells, Reed-Muench; assay type: cell-based; conditions: Cox_B3 virus in Vero cells, CPE, Reed-Muench method; for IC50: read-out: IC50 (half-inhibitory concentration for viruses)
# From the text: The present examples verifies experimental results of anti-Cox_B3 of the compounds 1-137of the present invention, Pleconaril, 3-[3,5-dimethyl-4-[5-(3-methy-1,2-oxazolyl)propoxy]phenyl]-5-(trifluonomethyl) -1,2,4-oxadiazole is used as positive control.
# [2] = tested on: Vero cells; test: Toxicity (half toxic concentration) in the anti-Cox_B3 test on Vero cells; assay type: cell-based
compound,measurement,setting,value
"3-[3,5-dimethyl-4-[2-(3-methyl-1,2,4-thiadiazole-5-thio)ethoxyl]phenyl]-5-(trifluoromethyl)-1,2,4-oxadiazole [Compound 77]",IC50 (half-inhibitory concentration for viruses),[1],0.16 µg/mL
same,TC50 (half of the toxic concentration),[2],38.58 µg/mL
"Cc1nc(-c2ccc(OCCCOc3c(C)cc(-c4noc(C(F)(F)F)n4)cc3C)nc2)no1 [Compound 119, 2-[3-[2,6-dimethyl-4-[5-(trifluoromethyl)-1,2,4-oxadiazole-3-yl]phenoxyl]propoxy]-5-(5-methyl-1,2,4-oxadiazole-3-yl]-pyridine]",IC50,[1],0.042 µg/mL
same,TC50 (half of the toxic concentration),"[2]; Vero cells, Cox_B3",36.28 µg/mL
"2-[2,6-dimethyl-4-[(5-(trifluoromethyl)-1,2,4-oxadiazole-3-yl)phenoxyl]ethoxyl]-3-fluoro-5-methylpyridine [Compound 47]",IC50 (half-inhibitory concentration for viruses),[1],0.082 µg/mL
same,TC50 (half of the toxic concentration),[2],39.56 µg/mL
"Cc1cc(-c2noc(C(F)(F)F)n2)cc(C)c1OCCOC(C)(C)C [Compound 36, 3-[3,5-dimethyl-4-[(2-tert-butoxy)ethoxyl]phenyl]-5-(trifluoromethyl)-1,2,4-oxadiazole]",IC50,[1],0.13 µg/mL
same,TC50 (half of the toxic concentration),"[2]; Vero cells, Cox_B3",40.12 µg/mL
"6-[2,6-dimethyl-4-[(5-(trifluoromethyl)-1,2,4-oxadiazole-3-yl)phenoxyl]ethoxyl]pyridine-2-oxy-ethylketoxime [Compound 98]",IC50 (half-inhibitory concentration for viruses),[1],0.093 µg/mL
same,TC50 (half of the toxic concentration),[2],42.89 µg/mL
"Cc1cc(-c2noc(C(F)(F)F)n2)cc(C)c1OCCSc1nnc(C)n1C [Compound 27, 3-[2-[2,6-dimethyl-4-[5-(trifluoromethyl)-1,2,4-oxadiazole-3-yl]phenoxyl]ethylthio]-4,5-dimethyl-4H-1,2,4-triazole]",IC50,[1],0.07 µg/mL
same,TC50 (half of the toxic concentration),"[2]; Vero cells, Cox_B3",39.25 µg/mL
"4-[2,6-dimethyl-4-[(5-(trifluoromethyl)-1,2,4-oxadiazole-3-yl)phenoxyl]ethoxyl]-2-methoxyl-5-fluoropyrimidine [Compound 108]",IC50 (half-inhibitory concentration for viruses),[1],0.078 µg/mL
same,TC50 (half of the toxic concentration),[2],47.58 µg/mL
"4-[2,6-dimethyl-4-[(5-(trifluoromethyl)-1,2,4-oxadiazole-3-yl)phenoxyl]ethoxyl]-3-fluorobenzonitrile [Compound 38]",IC50 (half-inhibitory concentration for viruses),[1],0.048 µg/mL
same,TC50 (half of the toxic concentration),[2],45.28 µg/mL
"Cc1cc(-c2noc(C(F)(F)F)n2)cc(C)c1OCCCOc1ncc(-c2noc(C(F)(F)F)n2)cn1 [Compound 136, 2-[3-[2,6-dimethyl-4-[5-(trifluoromethyl)-1,2,4-oxadiazole-3-yl]phenoxyl]propoxy]-5-[5-(trifluoromethyl)-1,2,4-oxadiazole-3-yl]-pyrimidine]",IC50,[1],0.04 µg/mL
same,TC50 (half of the toxic concentration),"[2]; Vero cells, Cox_B3",41.23 µg/mL
"5-[2,6-dimethyl-4-[(5-(trifluoromethyl)-1,2,4-oxadiazole-3-yl)phenoxyl]ethoxyl]pyridine-2-oxy-ethylketoxime [Compound 45]",IC50 (half-inhibitory concentration for viruses),[1],0.10 µg/mL
same,TC50 (half of the toxic concentration),"[2]; Vero cells, Cox_B3",32.28 µg/mL
"6-[2,6-dimethyl-4-[(5-(trifluoromethyl)-1,2,4-oxadiazole-3-yl)phenoxyl]ethoxyl]-5-fluoro-2-hydroxy-3-cyanopyridine [Compound 102]",IC50 (half-inhibitory concentration for viruses),[1],0.10 µg/mL
same,TC50 (half of the toxic concentration),[2],36.28 µg/mL
"2-[2,6-dimethyl-4-[(5-(trifluoromethyl)-1,2,4-oxadiazole-3-yl)phenoxyl]ethoxyl]-3-fluoro-5-methylpyridine [Compound 101]",IC50 (half-inhibitory concentration for viruses),[1],0.078 µg/mL
same,TC50 (half of the toxic concentration),[2],37.35 µg/mL
"6-[2,6-dimethyl-4-[(5-(trifluoromethyl)-1,2,4-oxadiazole-3-yl)phenoxyl]ethoxyl]-5-fluoro-3-cyanopyridine [Compound 46]",IC50 (half-inhibitory concentration for viruses),[1],0.088 µg/mL
same,TC50 (half of the toxic concentration),[2],38.58 µg/mL
